Where a name gives a salt, the structure may show the parent alone.

T1 sequence (P51681 whole entry): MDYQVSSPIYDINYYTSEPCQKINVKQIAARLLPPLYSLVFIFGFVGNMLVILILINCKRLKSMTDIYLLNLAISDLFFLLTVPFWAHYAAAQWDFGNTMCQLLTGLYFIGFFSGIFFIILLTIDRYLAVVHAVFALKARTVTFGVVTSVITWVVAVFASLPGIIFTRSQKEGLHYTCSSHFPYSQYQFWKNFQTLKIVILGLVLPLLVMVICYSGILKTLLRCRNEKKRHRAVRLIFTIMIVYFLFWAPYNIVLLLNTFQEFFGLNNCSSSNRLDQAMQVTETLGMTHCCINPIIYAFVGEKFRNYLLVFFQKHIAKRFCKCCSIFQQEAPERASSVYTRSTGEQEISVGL

One assay has as its target T1, human CCR5 (Homo sapiens, UniProt P51681).
T1 construct: expressed in transfected cells; whole cells in the well
In words: CCR5 binding assay: inhibition of [125I]-RANTES binding to CHO/CCR5 cells. Particulars: 1.0 μM test compound, 100 pM [125I]-RANTES, room temperature 40 minutes. How it is done: (1) Cloning of Human CCR5 Chemokine Receptor
Cloning of CCR5 gene was carried out by PCR (polymerase chain reaction) from human spleen cDNA. With using 0.5 ng of spleen cDNA (Toyobo, QUICK-Clone cDNA) as template, PCR was performed in DNA Thermal Cycler 480 (Perkin-Elmer) (reaction conditions: 30 cycles of 95° C. for 1 minute, 60° C. for 1 minute, and 75° C. for 5 minutes) by adding primer set, 5′-[…]-3′ (25 pmol) and 5′-[…]-3′ (25 pmol), which were designed referring to nucleotide sequence of CCR5 gene reported by Samson et al. (Biochemistry, 35(11), 3362-3367 (1996)) and by using TaKaRa EX Taq (Takara Shuzo). The resultant PCR product was subjected to agarose gel electrophoresis to collect about 1.0 kb DNA fragment, which was subjected to Original TA Cloning Kit (Funakoshi) to carry out cloning of CCR5 gene.
(2) Preparation of Plasmid for Expression of Human […]
The plasmid obtained in the above (1) was digested with restriction enzymes XbaI (Takara Shuzo) and BamHI (Takara Shuzo) and subjected to agarose gel electrophoresis to collect about 1.0 kb DNA fragment. The DNA fragment was mixed with plasmid pcDNA3.1 (Funakoshi) for expression in animal cells, said plasmid being digested with XbaI and BamHI, and they were ligated with DNA Ligation Kit Ver.2 (Takara Shuzo). The resulting plasmid was subjected to transformation of competent cell of E. coli JM109 (Takara Shuzo) to obtain plasmid pCKR5.
(3) Introduction of Plasmid for Expression of Human CCR5 into CHO-K1 Cell and Expression of said Plasmid in CHO-KY Cell
CHO-K1 cells were grown in 750 ml of tissue culture flask (Becton Dickinson) using Ham's F12 medium (Nihon Pharmaceutical) containing 10% fetal calf serum (Life Tech Oriental) and took off with 0.5 g/L trypsin-0.2 g/L EDTA (Life Tech Oriental). The cells were washed with PBS (Life Tech Oriental), centrifuged (1000 rpm, 5 minutes), and suspended in PBS. With using Gene Pulser (Bio-Rad Laboratories), DNA was introduced into the cells under the conditions shown below. That is, to the cuvette of 0.4 cm gap were added 8×10^6 cells and 10 μg of plasmid pCKR5 for expression of human CCR5, and electroporation was carried out under 0.25 kV of voltage and […] of capacitance. The cells were transferred into Ham's F12 medium (Nihon Pharmaceutical) containing 10% fetal calf serum, and cultivated for 24 hours. The cells were again took off and centrifuged, and suspended in Ham's F12 medium (Nihon Pharmaceutical) containing 10% fetal calf serum and 500 μg/ml of geneticin (Life Tech Oriental). The suspension was diluted to give 10^4 cells/ml of the suspension, which was inoculated on 96 well plate (Becton Dickinson) to give geneticin resistant cells. The resulting geneticin resistant cells were cultivated in 96 well plate (Becton Dickinson), and cells expressing CCR5 were selected from the geneticin resistant cells. That is, in assay buffer (Ham's F12 medium containing 0.5% BSA and 20 mM HEPES (Wako Pure Chemical, pH7.2) to which was added 200 pM of [^125I]-RANTES (Amersham) as ligand, binding reaction was carried out at room temperature for 40 minutes, and the buffer was washed with cooled PBS. To the buffer was added 50 μl/well of 1M NaOH, and the mixture was stirred. Radioactivity was determined with γ-counter to select CHO/CCR5 cells which specifically bind to the ligand.
(4) Evaluation of Test Compounds Based on CCR5 Antagonistic Activity
The CHO/CCR5 were inoculated on 96 well microplate (5×10^4 cells/well) and cultivated for 24 hours. The medium was removed by means of suction, and to each well was added assay buffer containing Test Compound (191) and then 100 pM of [^125I]-RANTES (Amersham) as ligand. Binding assay was carried out at room temperature for 40 minutes, and assay buffer was removed by means of suction. Each well was washed twice with cooled PBS, and 200 μl of Microscint-20 (Packard Instrument, Inc.) was added to each well.
As for `CC(=O)N1CCC(C(=O)N(CCCN2CCN(Cc3c(C)noc3C)CC2)c2cccc(Cl)c2)CC1.O=C(O)C(F)(F)F.O=C(O)C(F)(F)F` [Example 272, 1-Acetyl-N-(3-chlorophenyl)-N-(3-{4-[(3,5-dimethylisoxazol-4-yl)methyl]-1-piperazinyl}propyl)-4-piperidinecarboxamide 2 Trifluoroacetate], the “Inhibition Rate (%) at 1.0 μM” value was 96%.

For `CC(=O)N1CCC(C(=O)N(CCCN2CCC(Sc3nc4ccccc4s3)CC2)c2ccc(Cl)c(Cl)c2)CC1` [Example 224], the “Inhibition Rate (%) at 1.0 μM” value is listed as 97%.

Still in this assay, the particulars now being: 1.0 μM test compound, 100 pM [125I]-RANTES, room temperature 40 minutes, read-out: Inhibition Rate (%) at 1.0 μM.
On to `CC(=O)N1CCC(C(=O)N(CCCN2CCC(n3nnc4ccccc43)CC2)c2cccc(Cl)c2)CC1` [Example 289, 1-Acetyl-N-{3-[4-(1H-1,2,3-benzotriazol-1-yl)-1-piperidinyl]propyl}-N-(3-chlorophenyl)-4-piperidinecarboxamide], for which the inhibition at 1 µM was determined as 83%.

Take `CS(=O)(=O)N1CCC(C(=O)N(CCCN2CCC(Cc3ccc(C(N)=O)cc3)CC2)c2ccc(Cl)c(Cl)c2)CC1` [Example 362, N-(3-{4-[4-(Aminocarbonyl)benzyl]-1-piperidinyl}propyl)-N-(3,4-dichlorophenyl)-1-(methylsulfonyl)-4-piperidinecarboxamide]: the inhibition at 1 µM was determined as 95%.

On to `CC(=O)N1CCC(C(=O)N(CCCN2CCC(Nc3ccc(C#N)cc3)CC2)c2ccc(Cl)c(Cl)c2)CC1` [Example 211, 1-Acetyl-N-{3-[4-(4-cyanoanilino)-1-piperidinyl]propyl}-N-(3,4-dichlorophenyl)-4-piperidinecarboxamide], for which the inhibition at 1 µM turned out to be 90%.

For `CC(=O)N1CCC(C(=O)N(CCCN2CCC(Cc3nccs3)CC2)c2cccc(Cl)c2)CC1` [Example 168, 1-Acetyl-N-(3-chlorophenyl)-N-{3-[4-(2-thiazolylmethyl)-1-piperidinyl]propyl}-4-piperidinecarboxamide Ditrifluoroacetate], the inhibition at 1 µM is 82%.

For the compound `CS(=O)(=O)c1ccc(S(=O)(=O)C2CCN(CCCN(C(=O)C3CCN(S(C)(=O)=O)CC3)c3ccc(Cl)c(Cl)c3)CC2)cc1` [Example 334, N-(3,4-Dichlorophenyl)-1-(methylsulfonyl)-N-[3-(4-{[4-(methylsulfonyl)phenyl]sulfonyl}-1-piperidinyl)propyl]-4-piperidinecarboxamide], the inhibition at 1 µM worked out at 100%.

Regarding `COc1ccc(CC2CCN(CCCN(C(=O)C3CCN(S(C)(=O)=O)CC3)c3ccc(Cl)c(Cl)c3)CC2)cc1` [Example 250, N-(3,4-Dichlorophenyl)-N-{3-[4-(4-methoxybenzyl)-1-piperidinyl]propyl}-1-(methylsulfonyl)-4-piperidinecarboxamide], the inhibition at 1 µM worked out at 96%.

For `CC(=O)N1CCC(C(=O)N(CCCN2CCC(Cc3ccc(-n4cnnn4)cc3)CC2)c2ccc(Cl)c(Cl)c2)CC1` [Example 300, 1-Acetyl-N-(3,4-dichlorophenyl)-N-(3-{4-[4-(1H-tetrazol-1-yl)benzyl]-1-piperidinyl}propyl)-4-piperidinecarboxamide], the inhibition at 1 µM is 100%.

For the compound `CC(=O)N1CCC(C(=O)N(CCCN2CCC(Cc3ccccc3)CC2)Cc2ccc(Cl)cc2)CC1` [Example 40, 1-Acetyl-N-[3-(4-benzyl-1-piperidinyl)propyl]-N-(4-chlorobenzyl)-4-piperidinecarboxamide Trifluoroacetate], the inhibition at 1 µM amounted to 98%.

For the compound `CC(C)S(=O)(=O)c1ccc(CC2CCN(CCCN(C(=O)C3CCN(S(C)(=O)=O)CC3)c3ccc(Cl)c(Cl)c3)CC2)cc1` [Example 384, N-(3,4-Dichlorophenyl)-N-(3-{4-[4-(isopropylsulfonyl)benzyl]-1-piperidinyl}propyl)-1-(methylsulfonyl)-4-piperidinecarboxamide], the inhibition at 1 µM was determined as 100%.

In the case of `CC(=O)N1CCC(C(=O)N(CCCN2CCC(Sc3cnccn3)CC2)c2cccc(Cl)c2)CC1` [Example 79, 1-Acetyl-N-(3-chlorophenyl)-N-[3-[4-(2-pyrazinylthio)-1-piperidinyl]propyl]-4-piperidinecarboxamide Trifluoroacetate], the inhibition at 1 µM is 90%.

The record behind these values is US6562978B1, “Cyclic amine compounds as CCR5 antagonists” (Takeda Chemical Industries, Ltd., priority 1999, dated 2003).
